Data from the Bradley open melting point set (2014).
Where “and” joins values, the source holds several entries; their conditions need not be identical. Equal entries are not always repeated.

Structure (SMILES) | melting point
CC(C)Cc1ccc(C(C)C(=O)O)cc1 (stereo not given) [2-(4-Isobutylphenyl)propanoic acid] | 77.5 °C
O=c1[nH]cnc2c1ncn2[C@H]1CC[C@@H](CO)O1 [didanosine] | 162 °C
C=C1CC2C3C=C(C)C4=CC(=O)CCC4(C)C3CCC2(C)C1(OC(C)=O)C(C)=O (stereo not given) [melengestrolacetate] | 224 °C
O=Cc1cccc(B(O)O)c1 [3-formylbenzeneboronic acid] | 111 °C
CCOC(=O)/C(C#N)=N\Nc1ccccc1[N+](=O)[O-] [Ethyl (2Z)-cyano[(2-nitrophenyl)hydrazono]acetate] | 103 °C
CC12CCC(CC1=O)C2(C)C (stereo not given) [1,7,7-Trimethylbicyclo[2.2.1]heptan-2-one] | 177 °C
Cc1cc[n+]([O-])cc1 [4-picoline-N-oxide] | 186 °C and 184 °C
COC1=C(OC)C(=O)C(C/C=C(\C)CC/C=C(\C)CC/C=C(\C)CC/C=C(\C)CC/C=C(\C)CC/C=C(\C)CC/C=C(\C)CC/C=C(\C)CC/C=C(\C)CCC=C(C)C)=C(C)C1=O | 49 °C
CC1(C)[C@@H]2CC[C@@]1(C)C(=O)C2=O [(1R)-camphorquinone] | 200 °C
O=[PH](c1ccccc1)c1ccccc1 [diphenylphosphine oxide] | 54 °C
CC(C(=O)O)c1cccc(C(=O)c2ccccc2)c1 (stereo not given) [Ketoprofen] | 94 °C
NC1CCCCC1 [Cyclohexanamine] | -18 °C
NCCS(=O)(=O)O [2-Aminoethanesulfonic acid] | 300 °C
CCCCCC(C)=O [Heptan-2-one] | -35 °C
c1ccc2scnc2c1 [1,3-Benzothiazole] | 2 °C
O=C(c1ccccc1)c1c(F)c(F)c(F)c(F)c1F [2,3,4,5,6-pentafluorobenzophenone] | 38 °C
O=C(O)c1ccccc1O [salicylic_acid] | 160 °C
CC(C)S [2-propanethiol] | -131 °C
c1ccc2c(c1)Cc1ccccc1-2 [9H-Fluorene] | 116 °C
Cc1c(C)c(C)c(C)c(C)c1C [hexamethylbenzene] | 164 °C and 168 °C
Oc1ccc(Cl)cc1 [4-Chlorophenol] | 44 °C
OCCSSCCO [2-Hydroxyethyl Disulfide] | 26 °C
CCCCP(CCCC)CCCC [Tributylphosphine] | -60 °C
NS(=O)(=O)c1cc2c(cc1C(F)(F)F)NCNS2(=O)=O [hydroflumethiazide] | 272 °C
CC#N [Acetonitrile] | -46 °C
O=P(O)(O)CP(=O)(O)O [methylenediphosphonic acid] | 203 °C
CCCCOc1ccccc1 [N-butyl phenyl ether] | -19 °C

Structure (SMILES) | melting point
Oc1ccccc1I [2-iodophenol] | 43 °C and 38.5 °C
O=Cc1ccccc1B(O)O [2-formylbenzeneboronic acid] | 118 °C
OCc1ccco1 [furfuryl alcohol] | -31 °C
COc1ccc(CC(=O)O)cc1 [4-methoxyphenylacetic acid] | 87 °C
CCBr [Bromoethane] | -119 °C
Cc1ccccc1CNC(=S)Nc1ccccc1 [1-(2-methylbenzyl)-3-phenylthiourea] | 163 °C
O=[N+]([O-])c1c(O)cccc1O [2-nitroresorcinol] | 83 °C
N#CSCSC#N [Methylene bis(thiocyanate)] | 106 °C
Cc1ccc(I)cc1N [5-iodo-2-methylaniline] | 48 °C
Clc1nc(Cl)nc(Cl)n1 [cyanuric chloride] | 147 °C
CCC(C)(C)O [2-methyl-2-butanol] | -8 °C
CCCCCCl [1-chloropentane] | -99 °C
CCc1ccc(N)cc1 [4-ethylaniline] | -5 °C
Cc1cccc(C)c1N [2,6-dimethylaniline] | 11 °C
CS(=O)(=O)c1cccs1 [2-(methylsulfonyl)thiophene] | 48 °C
CCN(C)C [N,N-dimethylethylamine] | -140 °C
OCc1ccccc1 [benzyl alcohol] | -15 °C
C[Si](C)(C)N=C=S [trimethylsilyl isothiocyanate] | -33 °C
CCN(CC)c1ccc(C=O)cc1 [4-diethylaminobenzaldehyde] | 40 °C
Cc1cc(C)cc(-c2cc(C)cc(C)c2)c1 [3,3',5,5'-tetramethylbiphenyl] | 48 °C
CC(=O)NS(=O)(=O)c1ccc(N)cc1 [Sulfacetamide] | 183 °C
C[C@]12CCC(=O)C=C1CC[C@@H]1[C@@H]2C(=O)C[C@@]2(C)[C@H]1CC[C@]2(O)C(=O)CO [cortisone] | 222 °C
c1ccc2[nH]nnc2c1 [1h-benzotriazole] | 98 °C
N#CCc1ccccc1[N+](=O)[O-] [2-nitrophenylacetonitrile] | 83 °C
Sc1nc2ccccc2[nH]1 [2-mercaptobenzimidazole] | 303 °C
C1CCCCCCCCCCC1 [Cyclododecane] | 61 °C
O=Cc1cnc2ccccc2c1 [quinoline-3-carboxaldehyde] | 70 °C

Structure (SMILES) | melting point
Cc1ccc(S(=O)(=O)CCO)cc1 [2-(p-toluenesulfonyl)ethanol] | 52 °C
CC(=O)CC(C)=O [Pentane-2,4-dione] | -23 °C
COc1cc(NS(=O)(=O)c2ccc(N)cc2)nc(OC)n1 [Sulfadimethoxine] | 204 °C
CCCCCCCCI [1-iodooctane] | -44 °C
CC1(C)[C@H]2CC[C@]1(CS(=O)(=O)Cl)C(=O)C2 [(1R)-camphor-10-sulfonyl chloride] | 66 °C
Brc1ccc2sccc2c1 [5-bromobenzo[b]thiophene] | 46 °C
CCCCCCC#N [heptanenitrile] | -64 °C
CC[C@H](C)[C@H](N)C(=O)O [L-Isoleucine] | 169 °C
Cc1ccc(-c2ccccc2)s1 [2-methyl-5-phenylthiophene] | 48 °C
Cc1ccccc1O [o-cresol] | 31 °C and 32 °C
CCN(CC)c1ccc(C(=O)CBr)cc1 [2-bromo-4'-(diethylamino)acetophenone] | 51 °C
O=[N+]([O-])c1cccc(Cl)c1Cl [2,3-dichloronitrobenzene] | 62 °C
CNc1ccccc1 [N-Methylaniline] | -57 °C
NC(=O)c1ccc(O)cc1 [4-hydroxybenzamide] | 161 °C
O=C(CC(=O)C(F)(F)F)c1ccco1 [4,4,4-trifluoro-1-(2-furyl)-1,3-butanedione] | 21 °C
COc1cc(C)ccc1O [2-methoxy-4-methylphenol] | 6 °C
O=C(NC(C(=O)O)c1ccccc1)OCC(Cl)(Cl)Cl (stereo not given) [Phenyl{[(2,2,2-trichloroethoxy)carbonyl]amino}acetic acid] | 142 °C
OC1CC2=C(CCCC2)CC1O (stereo not given) [1,2,3,4,5,6,7,8-octahydronaphthalene-2,3-diol] | 121 °C
CSC(SC)=C(C#N)C(N)=O [2-Cyano-3,3-bis(methylsulfanyl)acrylamide] | 102 °C
COc1ccccc1N [o-anisidine] | 6 °C
Nc1ccccc1C(=O)O [o-aminobenzoic_acid] | 146 °C
COC1(CBr)OC(COC(=O)c2ccc(C)cc2)C(OC(=O)c2ccc(C)cc2)C1OC(=O)c1ccc(C)cc1 (stereo not given) | 149 °C
Oc1ccc(Cl)cc1Cl [2,4-Dichlorophenol] | 42.5 °C
Oc1ccc2cccc(O)c2c1 [1,7-dihydroxynaphthalene] | 182 °C
NC(=O)c1cccc(Cl)c1Cl [2,3-dichlorobenzamide] | 167 °C
CCCCCCCCN(CCCCCCCC)CCCCCCCC [tri-n-octylamine] | -39 °C
O=C(O)c1c2ccccc2cc2ccccc12 [Anthracene-9-carboxylic acid] | 213 °C

Structure (SMILES) | melting point
Cc1cc(Br)ccc1N=C=S [4-bromo-2-methylphenyl isothiocyanate] | 45 °C
C=C(C)CC(C)(C)C [2,4,4-Trimethylpent-1-ene] | -94 °C
ClCC1CO1 (stereo not given) [epichlorohydrin] | -57 °C
CCOc1ccc(NC(C)=O)cc1 [phenacetin] | 138 °C and 135 °C (2×)
O=Cc1ccc(O)cc1O [2,4-Dihydroxybenzaldehyde] | 136 °C
COC(=O)c1ccc(B(O)O)cc1 [4-(methoxycarbonyl)benzeneboronic acid] | 223 °C
CSc1ccc(C(=O)c2[nH]c(=O)[nH]c2C)cc1 [Enoximone] | 256 °C
Nc1cccc2ccccc12 [1-aminonaphthalene] | 49 °C
N#CCc1ccc2ccccc2c1 [2-naphthylacetonitrile] | 83 °C
O=C(c1ccccc1)c1cccc(Cl)c1 [3-chlorobenzophenone] | 83 °C
NC12CC3CC(CC(C3)C1)C2 [Amantadine] | 180 °C
OCc1ccccc1O[C@@H]1O[C@H](CO)[C@@H](O)[C@H](O)[C@H]1O [2-(Hydroxymethyl)phenyl beta-D-glucopyranoside] | 199 °C
O=C(O)c1cc(O)ccc1O [2,5-Dihydroxybenzoic acid] | 206 °C
FC(F)(F)c1ccccc1 [(Trifluoromethyl)benzene] | -27 °C
Nc1ccc(Cl)cc1[N+](=O)[O-] [4-chloro-2-nitroaniline] | 118 °C
O=C(O)CCc1c(F)c(F)nc(F)c1F [2,3,5,6-tetrafluoropyridine-4-propionic acid] | 152 °C
O=C1O[C@H]([C@@H](O)CO)C(O)=C1O [Vitamin C] | 191 °C
COc1ccc(C(=O)OC(=O)c2ccc(OC)cc2)cc1 [4-methoxybenzoic anhydride] | 97 °C
CCOC(C)(C)C [2-Ethoxy-2-methylpropane] | -94 °C
CC(C)c1ccccc1 [cumene] | -96 °C
Nc1cccc(CO)c1 [m-amino_benzyl_alcohol] | 95 °C
COC(=O)c1ccc(C)cc1 [methyl p-toluate] | 34 °C
NC(=O)/C(=N\Nc1ccc(O)cc1)c1nc2ccccc2s1 | 161 °C
Brc1cccc2ccccc12 [1-bromonaphthalene] | -1 °C
